Target: HPK1 (Homo sapiens (Human), UniProt Q92918)
Experiment: HPK1 Inhibition Assay (ADP-Glo kinase assay)
Type: biochemical
Details: ATP 10 μM
Outline: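 ADP-Glo luminescence read-out after 1 h room-temperature kinase reaction with 10 μM ATP and 0.1 μg/ml MBP. Recombinant human HPK1 at 7.5 ng/μl; buffer 40 mM Tris pH 7.5, 20 mM MgCl2. Compounds serially diluted 5-fold over 10 points from 10 mM DMSO stock.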

Chain of HPK1 (Q92918 1-346 limits assumed): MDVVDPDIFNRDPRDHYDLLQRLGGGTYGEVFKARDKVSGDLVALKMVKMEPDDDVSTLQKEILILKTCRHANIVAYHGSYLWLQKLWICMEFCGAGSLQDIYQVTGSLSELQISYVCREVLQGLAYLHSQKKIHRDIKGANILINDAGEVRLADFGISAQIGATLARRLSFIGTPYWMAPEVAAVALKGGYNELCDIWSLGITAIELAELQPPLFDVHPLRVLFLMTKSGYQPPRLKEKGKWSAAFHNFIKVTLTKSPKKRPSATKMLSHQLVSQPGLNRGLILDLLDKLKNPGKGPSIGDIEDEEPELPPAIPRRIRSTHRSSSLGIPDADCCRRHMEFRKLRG

IC50, < 0.1 µM:
Cn1c(C(C)(C)F)nc2c(N3CC[C@@H](N)C3)c(NC(=O)c3ccc(=O)n(-c4c(F)cccc4F)n3)ccc21 [Example 155]
Cn1c(CC(F)(F)F)nc2c(N3CC[C@@H](N)C3)c(NC(=O)c3ccc(=O)n(-c4c(F)cccc4F)n3)ccc21 [Example 156, (R)-N-(4-(3-aminopyrrolidin-1-yl)-1-methyl-2-(2,2,2-trifluoroethyl)-1H-benzo[d]imidazol-5-yl)-1-(2,6-difluorophenyl)-6-oxo-1,6-dihydropyridazine-3-carboxamide]
Cn1c(C(C)(C)F)nc2c(N3CC[C@@H](N)C3)c(NC(=O)c3ccc(=O)n(-c4c(F)cccc4F)n3)cc(F)c21 [Example 157, (R)-N-(4-(3-aminopyrrolidin-1-yl)-7-fluoro-2-(2-fluoropropan-2-yl)-1-methyl-1H-benzo[d]imidazol-5-yl)-1-(2,6-difluorophenyl)-6-oxo-1,6-dihydropyridazine-3-carboxamide]
Cn1c(C(C)(C)C(F)(F)F)nc2c(N3CC[C@@H](N)C3)c(NC(=O)c3ccc(=O)n(-c4c(F)cccc4F)n3)ccc21 [Example 158, (R)-N-(4-(3-aminopyrrolidin-1-yl)-1-methyl-2-(1,1,1-trifluoro-2-methylpropan-2-yl)-1H-benzo[d]imidazol-5-yl)-1-(2,6-difluorophenyl)-6-oxo-1,6-dihydropyridazine-3-carboxamide]
Cn1c(C(F)F)nc2c(N3CC[C@@H](N)C3)c(NC(=O)c3ccc(=O)n(-c4c(F)cccc4F)n3)ccc21 [Example 159, (R)-N-(4-(3-aminopyrrolidin-1-yl)-2-(difluoromethyl)-1-methyl-1H-benzo[d]imidazol-5-yl)-1-(2,6-difluorophenyl)-6-oxo-1,6-dihydropyridazine-3-carboxamide]
Cn1c(C2CC2)nc2c(N3CC[C@@H](N)C3)c(NC(=O)c3ccc(=O)n(-c4c(F)cccc4F)n3)ccc21 [Example 160, (R)-N-(4-(3-aminopyrrolidin-1-yl)-2-cyclopropyl-1-methyl-1H-benzo[d]imidazol-5-yl)-1-(2,6-difluorophenyl)-6-oxo-1,6-dihydropyridazine-3-carboxamide]
Cn1c(C(F)F)nc2c(N3CC[C@H](N)C3)c(NC(=O)c3ccc(=O)n(-c4c(F)cccc4F)n3)ccc21 [Example 161, (S)-N-(4-(3-aminopyrrolidin-1-yl)-2-(difluoromethyl)-1-methyl-1H-benzo[d]imidazol-5-yl)-1-(2,6-difluorophenyl)-6-oxo-1,6-dihydropyridazine-3-carboxamide]
CSCc1nc2c(N3CC[C@@H](N)C3)c(NC(=O)c3ccc(=O)n(-c4c(F)cccc4F)n3)ccc2n1C [Example 162, (R)-N-(4-(3-aminopyrrolidin-1-yl)-1-methyl-2-((methylthio)methyl)-1H-benzo[d]imidazol-5-yl)-1-(2,6-difluorophenyl)-6-oxo-1,6-dihydropyridazine-3-carboxamide]
CC(C)c1nc2c(N3CC[C@@H](N)C3)c(NC(=O)c3ccnn(-c4c(F)cccc4F)c3=O)ccc2n1C [Example 163, (R)-N-(4-(3-aminopyrrolidin-1-yl)-2-isopropyl-1-methyl-1H-benzo[d]imidazol-5-yl)-2-(2,6-difluorophenyl)-3-oxo-2,3-dihydropyridazine-4-carboxamide]
COc1cccc(F)c1-c1nccc(C(=O)Nc2ccc3c(nc(CS(C)(=O)=O)n3C)c2N2CC[C@@H](N)C2)c1F [Example 165, N-(4-((R)-3-aminopyrrolidin-1-yl)-1-methyl-2-((methylsulfonyl)methyl)-1H-benzo[d]imidazol-5-yl)-3-fluoro-2-(2-fluoro-6-methoxyphenyl)isonicotinamide]
C[C@@H]1CN(c2c(NC(=O)c3ccc(=O)n(-c4c(F)cccc4F)n3)ccc3c2cnn3C)C[C@@H]1N [Example 166, N-[4-[(3R,4R)-3-amino-4-methyl-pyrrolidin-1-yl]-1-methyl-indazol-5-yl]-1-(2,6-difluorophenyl)-6-oxo-pyridazine-3-carboxamide]
Cn1ncc2c(N3CC[C@@H](N)C3)c(NC(=O)c3ccc(=O)n(-c4c(F)cccc4F)n3)ccc21 [Example 167, (R)-N-(4-(3-aminopyrrolidin-1-yl)-1-methyl-1H-indazol-5-yl)-1-(2,6-difluorophenyl)-6-oxo-1,6-dihydropyridazine-3-carboxamide]
Cn1ncc2c(N3CCC(N)CC3)c(NC(=O)c3ccc(=O)n(-c4c(F)cccc4F)n3)cc(F)c21 [Example 168, N-(4-(4-aminopiperidin-1-yl)-7-fluoro-1-methyl-1H-indazol-5-yl)-1-(2,6-difluorophenyl)-6-oxo-1,6-dihydropyridazine-3-carboxamide]
Cn1ncc2c(N3CCC[C@@H](N)C3)c(NC(=O)c3ccc(=O)n(-c4c(F)cccc4F)n3)cc(F)c21 [Example 169, (R)-N-(4-(3-aminopiperidin-1-yl)-7-fluoro-1-methyl-1H-indazol-5-yl)-1-(2,6-difluorophenyl)-6-oxo-1,6-dihydropyridazine-3-carboxamide]
C[C@@H]1CN(c2c(NC(=O)c3ccc(=O)n(-c4c(F)cccc4F)n3)cc(F)c3c2cnn3C)C[C@@H]1N [Example 170, N-(4-((3R,4R)-3-amino-4-methylpyrrolidin-1-yl)-7-fluoro-1-methyl-1H-indazol-5-yl)-1-(2,6-difluorophenyl)-6-oxo-1,6-dihydropyridazine-3-carboxamide]
[2H]C([2H])([2H])n1ncc2c(N3C[C@@H](C)[C@@H](N)C3)c(NC(=O)c3ccc(=O)n(-c4c(F)cccc4F)n3)ccc21 [Example 171, N-(4-((3R,4R)-3-amino-4-methylpyrrolidin-1-yl)-1-(methyl-d3)-1H-indazol-5-yl)-1-(2,6-difluorophenyl)-6-oxo-1,6-dihydropyridazine-3-carboxamide]
[2H]C([2H])([2H])n1ncc2c(N3C[C@H](N)C4(CC4)C3)c(NC(=O)c3ccc(=O)n(-c4c(F)cccc4F)n3)ccc21 [Example 172, (R)-N-(4-(7-amino-5-azaspiro[2.4]heptan-5-yl)-1-(methyl-d3)-1H-indazol-5-yl)-1-(2,6-difluorophenyl)-6-oxo-1,6-dihydropyridazine-3-carboxamide]
C[C@H]1CN(c2c(NC(=O)c3ccc(=O)n(-c4c(F)cccc4F)n3)ccc3c2cnn3C)C[C@@H]1N [Example 173, N-(4-((3R,4S)-3-amino-4-methylpyrrolidin-1-yl)-1-methyl-1H-indazol-5-yl)-1-(2,6-difluorophenyl)-6-oxo-1,6-dihydropyridazine-3-carboxamide]
Cn1ncc2c(N3C[C@H](N)C4(CC4)C3)c(NC(=O)c3ccc(=O)n(-c4c(F)cccc4F)n3)ccc21 [Example 174, (R)-N-(4-(7-amino-5-azaspiro[2.4]heptan-5-yl)-1-methyl-1H-indazol-5-yl)-1-(2,6-difluorophenyl)-6-oxo-1,6-dihydropyridazine-3-carboxamide]
Cn1cc2c(N3CC[C@@H](N)C3)c(NC(=O)c3ccc(=O)n(-c4c(F)cccc4F)n3)ccc2n1 [Example 175, (R)—N-(4-(3-aminopyrrolidin-1-yl)-2-methyl-2H-indazol-5-yl)-1-(2,6-difluorophenyl)-6-oxo-1,6-dihydropyridazine-3-carboxamide]
Cn1cc2c(N3CCC[C@@H](N)C3)c(NC(=O)c3ccc(=O)n(-c4c(F)cccc4F)n3)ccc2n1 [Example 176, (R)-N-(4-(3-aminopiperidin-1-yl)-2-methyl-2H-indazol-5-yl)-1-(2,6-difluorophenyl)-6-oxo-1,6-dihydropyridazine-3-carboxamide]
Cn1cc2c(N3CCC(N)CC3)c(NC(=O)c3ccc(=O)n(-c4c(F)cccc4F)n3)ccc2n1 [Example 177, N-(4-(4-aminopiperidin-1-yl)-2-methyl-2H-indazol-5-yl)-1-(2,6-difluorophenyl)-6-oxo-1,6-dihydropyridazine-3-carboxamide]
[2H]C([2H])([2H])n1cc2c(N3C[C@@H](C)[C@@H](N)C3)c(NC(=O)c3ccc(=O)n(-c4c(F)cccc4F)n3)ccc2n1 [Example 178, N-(4-((3R,4R)-3-amino-4-methylpyrrolidin-1-yl)-2-(methyl-d3)-2H-indazol-5-yl)-1-(2,6-difluorophenyl)-6-oxo-1,6-dihydropyridazine-3-carboxamide]
CC(C)n1ncc2c(N3CC[C@@H](N)C3)c(NC(=O)c3ccc(=O)n(-c4c(F)cccc4F)n3)ccc21 [Example 179, N-[4-[(3R)-3-aminopyrrolidin-1-yl]-1-isopropyl-indazol-5-yl]-1-(2,6-difluorophenyl)-6-oxo-pyridazine-3-carboxamide]
CC(C)n1ncc2c(N3C[C@@H](C)[C@@H](N)C3)c(NC(=O)c3ccc(=O)n(-c4c(F)cccc4F)n3)ccc21 [Example 180, N-(4-((3R,4R)-3-amino-4-methylpyrrolidin-1-yl)-1-isopropyl-1H-indazol-5-yl)-1-(2,6-difluorophenyl)-6-oxo-1,6-dihydropyridazine-3-carboxamide]
CC(C)n1ncc2c(N3CCC[C@@H]3CN)c(NC(=O)c3ccc(=O)n(-c4c(F)cccc4F)n3)ccc21 [Example 181, (R)-N-(4-(2-(aminomethyl)pyrrolidin-1-yl)-1-isopropyl-1H-indazol-5-yl)-1-(2,6-difluorophenyl)-6-oxo-1,6-dihydropyridazine-3-carboxamide]
